The record followed here is ChEMBL document CHEMBL4477199, “Design and synthesis of novel bicalutamide and enzalutamide derivatives as antiproliferative agents for the treatment of prostate cancer” (Eur J Med Chem, 2016).

Molecules are shown by their SMILES.

By IC50 is commonly meant the midpoint of a concentration-inhibition curve.

Data set [1] concerns CWR22R. The data set is described as follows: Antiproliferative activity against human 22Rv1 cells after 96 hrs by propidium iodide staining based fluorescence 2D monolayer assay. Format: functional, cell-based. Conditions: 22Rv1, 96 h.
The conditions of data set [2]: 96 h.
Description: Solubility in RPMI1640 culture medium at <30 uM incubated for 4 days by microscopic analysis
For data set [3] the following is noted: 33000 µM.
Description: Solubility in 100% DMSO at 33 mM at -20 degC
Data set [4] concerns VCaP. Kind of data set: Antiproliferative activity against human VCaP cells after 96 hrs by propidium iodide staining based fluorescence 2D monolayer assay. Format: functional, cell-based.
Data set [5] deals with DU-145. Kind of data set: Antiproliferative activity against human DU145 cells after 96 hrs by propidium iodide staining based fluorescence 2D monolayer assay. Conditions: DU-145, 96 h. Format: functional, cell-based.
The subject of data set [6] is LNCaP. The data set is described as follows: Antiproliferative activity against human LNCAP cells after 96 hrs by propidium iodide staining based fluorescence 2D monolayer assay. Type of data set: functional, cell-based.
Data set [7] deals with T1, Androgen receptor (Rattus norvegicus, UniProt P15207).
T1 sequence (P15207 whole entry): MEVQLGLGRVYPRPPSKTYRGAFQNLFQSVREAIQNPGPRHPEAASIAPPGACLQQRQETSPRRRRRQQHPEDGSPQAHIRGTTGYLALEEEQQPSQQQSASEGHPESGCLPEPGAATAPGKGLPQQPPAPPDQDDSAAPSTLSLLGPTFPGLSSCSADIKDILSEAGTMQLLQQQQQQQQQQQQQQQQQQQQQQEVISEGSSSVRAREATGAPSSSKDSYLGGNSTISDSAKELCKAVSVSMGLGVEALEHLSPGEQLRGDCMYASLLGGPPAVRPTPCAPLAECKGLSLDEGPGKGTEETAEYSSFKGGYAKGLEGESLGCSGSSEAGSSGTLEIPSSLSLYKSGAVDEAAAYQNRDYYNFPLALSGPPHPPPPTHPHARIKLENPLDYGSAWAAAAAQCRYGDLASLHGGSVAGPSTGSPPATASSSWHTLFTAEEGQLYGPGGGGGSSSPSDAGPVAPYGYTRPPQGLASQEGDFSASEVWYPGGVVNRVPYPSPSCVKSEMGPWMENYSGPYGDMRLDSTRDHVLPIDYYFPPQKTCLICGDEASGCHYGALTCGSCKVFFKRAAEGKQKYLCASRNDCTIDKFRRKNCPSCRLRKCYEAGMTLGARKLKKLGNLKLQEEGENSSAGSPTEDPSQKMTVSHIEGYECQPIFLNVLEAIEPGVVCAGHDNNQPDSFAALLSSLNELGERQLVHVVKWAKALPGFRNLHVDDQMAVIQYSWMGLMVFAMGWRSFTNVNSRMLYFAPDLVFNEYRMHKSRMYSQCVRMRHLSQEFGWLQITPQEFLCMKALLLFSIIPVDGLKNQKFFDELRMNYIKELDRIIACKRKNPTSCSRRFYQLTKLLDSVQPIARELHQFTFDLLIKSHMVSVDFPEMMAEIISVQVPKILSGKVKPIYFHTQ
The data set is described as follows: (§1) Antagonist activity at rat androgen receptor fused with DNA-binding domain of GAL4 expressed in AR-UAS-bla GripTite 293 cells assessed as inhibition of R1881-induced receptor activation preincubated for 30 mins followed by R1881 addition measured after 16 to 24 hrs by betalactamase reporter gene assay. Format: cell-based. In general terms: Reporter assays use an easily measured gene product as a stand-in for the process of interest.

Data set [8] has as its target T2, Androgen receptor (Rattus norvegicus) (UniProt P15207).
T2 sequence (whole entry): T1 sequence (P15207 whole entry)
The data set is described as §1. Format: cell-based.

Consider `CC1(C)C(=O)N(c2ccc(C(F)(F)F)cc2)C(=O)N1c1ccc([N+](=O)[O-])cc1C(F)(F)F`, for which the IC50 in data set [1] amounted to 16.4 µM; in data set [4] it was 100 µM; in data set [5] it was 100 µM; in data set [6], 3.73 µM; in data set [7], 0.265 µM. For the same compound, the solubility result in data set [2] and in data set [3] was “Soluble” throughout. The inhibition entry in data set [8] is “Dose-dependent effect”.
On to `CC(O)(COc1ccccc1OC(F)(F)F)C(=O)Nc1ccc([N+](=O)[O-])c(C(F)(F)F)c1` (centres undefined), for which the IC50 in data set [1] was 6.6 µM; in data set [4] it was 9.61 µM; in data set [5], 9.88 µM; in data set [6], 7.04 µM; in data set [7] it was 0.198 µM. In addition, the solubility result in data set [2] and in data set [3] was “Soluble” each time. In addition, the inhibition result in data set [8] is “Dose-dependent effect”.
In the case of `CC1(C)C(=O)N(c2cccc(C(F)(F)F)c2)C(=O)N1c1ccc([N+](=O)[O-])cc1C(F)(F)F`, the IC50 in data set [1] is 5.01 µM; in data set [4] it was 13.3 µM; in data set [5], 7.88 µM; in data set [6], 4.07 µM; in data set [7], 0.111 µM. The solubility entry in data set [2] and in data set [3] was “Soluble” throughout. Also, the inhibition entry in data set [8] was “Dose-dependent effect”.
Turning to `CC(O)(COc1ccc(C#N)cc1C(F)(F)F)C(=O)Nc1ccc(C#N)cc1C(F)(F)F` (centres undefined), the IC50 came out at 18.4 µM in data set [1]; 17.7 µM in data set [4]; 27.5 µM in data set [5]; 9.39 µM in data set [6]; 0.736 µM in data set [7]. Also, the solubility entry in data set [2] and in data set [3] was “Soluble” in each case. Moreover, the inhibition result in data set [8] is “Dose-dependent effect”.
On to `CC1(C)C(=O)N(c2cccc(C(F)(F)F)c2)C(=O)N1c1cccc(C(F)(F)F)c1`, for which the IC50 was found to be 60.7 µM in data set [1]; 75.7 µM in data set [4]; 100 µM in data set [5]; 5.61 µM in data set [6]; 0.123 µM in data set [7]. Moreover, the solubility entry in data set [2] and in data set [3] was “Soluble” throughout. Also, the inhibition entry in data set [8] was “Dose-dependent effect”.
For the compound `CC1(C)C(=O)N(c2ccc(C(F)(F)F)cc2)C(=O)N1c1ccc(C#N)cc1C(F)(F)F`, the IC50 was determined as 100 µM in data set [1]; 100 µM in data set [4]; 100 µM in data set [5]; 8.36 µM in data set [6]; 0.402 µM in data set [7]. Moreover, the solubility result in data set [2] and in data set [3] was “Soluble” each time. In addition, the inhibition entry in data set [8] was “Dose-dependent effect”.
Consider `C[C@](O)(CS(=O)(=O)c1ccc(F)cc1F)C(=O)Nc1ccc(C#N)c(C(F)(F)F)c1`, for which the IC50 was determined as 42.2 µM in data set [1], 60.9 µM in data set [4], 60.2 µM in data set [5] and 42.3 µM in data set [6]. The solubility entry in data set [2] and in data set [3] was “Soluble” each time.
On to `CC(O)(CS(=O)(=O)c1ccc(F)c(F)c1)C(=O)Nc1ccc([N+](=O)[O-])cc1C(F)(F)F` (centres undefined), for which the IC50 was determined as 33.6 µM in data set [1], 37.3 µM in data set [4], 48.1 µM in data set [5] and 19.5 µM in data set [6]. Further, the solubility entry in data set [2] and in data set [3] was “Soluble” each time.
As for `CC1(C)C(=O)N(c2cccc(C(F)(F)F)c2)C(=O)N1c1ccc([N+](=O)[O-])c(C(F)(F)F)c1`, the IC50 amounted to 100 µM in data set [1], 100 µM in data set [4], 100 µM in data set [5] and 15.2 µM in data set [6]. Besides, the solubility entry in data set [2] and in data set [3] was “Soluble” throughout.
Turning to `CC(O)(CSc1cccc(C(F)(F)F)c1)C(=O)Nc1ccc([N+](=O)[O-])cc1C(F)(F)F` (centres undefined), the IC50 in data set [1] stood at 12.6 µM; in data set [4], 16.5 µM; in data set [5], 14.3 µM; in data set [6], 10.1 µM. The solubility result in data set [2] and in data set [3] was “Soluble” throughout.
Regarding `CC(O)(COc1ccc(C(F)(F)F)cc1)C(=O)Nc1ccc(C#N)cc1C(F)(F)F` (centres undefined), the IC50 in data set [1] was found to be 29.9 µM; in data set [4], 23 µM; in data set [5], 32.4 µM; in data set [6], 28.6 µM. Moreover, the solubility result in data set [2] and in data set [3] was “Soluble” in each case.
Consider `C[C@](O)(CS(=O)(=O)c1cccc(C(F)(F)F)c1)C(=O)Nc1ccc(C#N)c(C(F)(F)F)c1`, for which the IC50 in data set [1] was found to be 25.7 µM; in data set [4] it was 39.9 µM; in data set [5], 45.2 µM; in data set [6] it was 13.2 µM. In addition, the solubility entry in data set [2] and in data set [3] was “Soluble” throughout.
Turning to `CC(O)(COc1cccc(C(F)(F)F)c1)C(=O)Nc1ccc(C#N)cc1C(F)(F)F` (centres undefined), the IC50 in data set [1] was 18.7 µM; in data set [4], 21.6 µM; in data set [5], 32.1 µM; in data set [6], 15.2 µM. The solubility entry in data set [2] and in data set [3] was “Soluble” each time.
`CC(O)(CSc1cccc(C(F)(F)F)c1)C(=O)Nc1ccc(C(F)(F)F)cc1` (centres undefined): the IC50 in data set [1] amounted to 18.6 µM; in data set [4] it was 19.5 µM; in data set [5] it was 30.7 µM; in data set [6], 22.6 µM. Besides, the solubility result in data set [2] and in data set [3] was “Soluble” each time.
For `CC(O)(COc1cccc(C(F)(F)F)c1)C(=O)Nc1ccc([N+](=O)[O-])cc1C(F)(F)F` (centres undefined), the IC50 was 15.2 µM in data set [1], 19.3 µM in data set [4], 18.1 µM in data set [5] and 12.9 µM in data set [6]. In addition, the solubility result in data set [2] and in data set [3] was “Soluble” each time.
Regarding `CC(O)(CSc1cccc(C(F)(F)F)c1)C(=O)Nc1ccc(C#N)cc1C(F)(F)F` (centres undefined), the IC50 amounted to 15.2 µM in data set [1], 23.5 µM in data set [4], 21.1 µM in data set [5] and 11.3 µM in data set [6]. Also, the solubility result in data set [2] and in data set [3] was “Soluble” in each case.
Consider `CC(O)(CSc1ccc(C(F)(F)F)cn1)C(=O)Nc1ccc(C#N)c(C(F)(F)F)c1` (centres undefined), for which the IC50 in data set [1] is 53.9 µM; in data set [4] it was 89.3 µM; in data set [5], 84.1 µM; in data set [6], 80.7 µM. The solubility result in data set [2] and in data set [3] was “Soluble” throughout.
For `CC(O)(CSc1ccc(F)cc1)C(=O)Nc1ccc(C#N)cc1C(F)(F)F` (centres undefined), the IC50 came out at 30.1 µM in data set [1], 45.5 µM in data set [4], 43.3 µM in data set [5] and 26.4 µM in data set [6]. Besides, the solubility result in data set [2] and in data set [3] was “Soluble” each time.
Consider `CC(O)(COc1ccc(F)cc1F)C(=O)Nc1ccc(C#N)cc1C(F)(F)F` (centres undefined), for which the IC50 was determined as 60.9 µM in data set [1], 50.6 µM in data set [4], 99.5 µM in data set [5] and 30.6 µM in data set [6]. The solubility entry in data set [2] and in data set [3] was “Soluble” in each case.
With `CC(O)(COc1cccc(C(F)(F)F)c1)C(=O)Nc1ccc([N+](=O)[O-])c(C(F)(F)F)c1` (centres undefined), the IC50 in data set [1] amounted to 8.58 µM; in data set [4], 10.3 µM; in data set [5], 10 µM; in data set [6], 9.91 µM. Besides, the solubility result in data set [2] and in data set [3] was “Soluble” throughout.
For `CC(O)(CS(=O)(=O)c1cccc(C(F)(F)F)c1)C(=O)Nc1ccc(C#N)cc1C(F)(F)F` (centres undefined), the IC50 in data set [1] stood at 34.4 µM; in data set [4], 44.9 µM; in data set [5], 45.9 µM; in data set [6], 32.1 µM. Further, the solubility result in data set [2] and in data set [3] was “Soluble” in each case.
With `CC(O)(CSc1ccc(C(F)(F)F)cc1)C(=O)Nc1ccc([N+](=O)[O-])c(C(F)(F)F)c1` (centres undefined), the IC50 in data set [1] was found to be 16.4 µM; in data set [4], 21.2 µM; in data set [5] it was 22.5 µM; in data set [6] it was 28.7 µM. Besides, the solubility result in data set [2] and in data set [3] was “Soluble” each time.
